Laboratory results from ChEMBL document CHEMBL1152824, “A novel insertion sequence, ISPA26, in oprD of Pseudomonas aeruginosa is associated with carbapenem resistance” (2007).
In brackets after ≈: the same amount, converted by molar mass.

Experiments:
[1] = tested on: Pseudomonas aeruginosa; experiment: microbe, parasite or virus in culture
Description: Antibacterial activity against Pseudomonas aeruginosa cystic fibrosis sputum isolate 529 carrying insertion sequence ISPa26 by disk susceptibility test

[2] = tested on: Pseudomonas aeruginosa; experiment: Antibacterial activity against Pseudomonas aeruginosa pus isolate 6 carrying insertion sequence ISPa26 by disk susceptibility test; assay type: functional
[3] = tested on: Pseudomonas aeruginosa; experiment: Antibacterial activity against Pseudomonas aeruginosa tracheal aspirate isolate 12 carrying insertion sequence ISPa26 by disk susceptibility test; assay type: functional
[4] = tested on: Pseudomonas aeruginosa; experiment: Antibacterial activity against Pseudomonas aeruginosa cystic fibrosis sputum isolate 286 carrying insertion sequence ISPa26 by disk susceptibility test; assay type: functional
[5] = tested on: Pseudomonas aeruginosa; experiment: Antibacterial activity against Pseudomonas aeruginosa blood isolate 1 carrying insertion sequence ISPa26 by disk susceptibility test; assay type: functional
[6] = tested on: Pseudomonas aeruginosa; experiment: Antibacterial activity against Pseudomonas aeruginosa tracheal aspirate isolate 8 carrying insertion sequence ISPa26 inserted into oprD gene by disk susceptibility test; assay type: functional
[7] = tested on: Pseudomonas aeruginosa; experiment: Antibacterial activity against Pseudomonas aeruginosa tracheal aspirate isolate 7 carrying insertion sequence ISPa26 by disk susceptibility test; assay type: functional

Row | SMILES | MIC [1] | MIC [2] | MIC [3] | MIC [4] | MIC [5] | MIC [6] | MIC [7]
1 | C[C@@H](O)[C@H]1C(=O)N2C(C(=O)O)=C(S[C@@H]3CN[C@H](C(=O)N(C)C)C3)[C@H](C)[C@H]12 [MEROPENEM] | 2 µg/mL (≈ 5.22 µM) | 6 µg/mL (≈ 15.6 µM) | 3 µg/mL (≈ 7.82 µM) | > 32 µg/mL | > 32 µg/mL | > 32 µg/mL | 6 µg/mL (≈ 15.6 µM)
2 | C[C@@H](O)[C@H]1C(=O)N2C(C(=O)O)=C(SCCNC=N)C[C@H]12 [IMIPENEM ANHYDROUS] | 1 µg/mL (≈ 3.34 µM) | > 32 µg/mL | 2 µg/mL (≈ 6.68 µM) | > 32 µg/mL | > 32 µg/mL | > 32 µg/mL | > 32 µg/mL
